Laboratory results reported in PubChem BioAssay AID493102 (Broad Institute, 2011).

test system: SK-MEL-5 TRPM1-promoter luciferase reporter, 24 h; test: TRPM1 promoter luciferase signal decrease, dose response, MITF inhibitor project, cell-based, SK-MEL-5, cherry-picked, set 4 (AID 493102);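 further: actives lower the luciferase signal so the potency reflects inhibition of reporter expression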

Compound | AC50 [µM]
Cc1ccc(NC(=O)c2cc3ccccc3oc2=O)cc1S(=O)(=O)N(C)C | 0.03
COc1ccc(-n2c(C)cc(C(=O)CCl)c2C)cc1 | 6.44
CC(C)=CCc1c(O)ccc2c1OC(c1ccc(O)c(O)c1)CC2=O (centres undefined) | 11.7
OCCNc1c2ccccc2nc2c(F)c(F)c(F)c(F)c12 | 4.14
CC(=O)CSc1ccc(-c2nc3cc(C)c(C)cc3[nH]2)cn1 | 3.67
CCOc1ccc(-n2c(-c3ccc(Br)cc3)c[n+]3c2CCCCC3)cc1 | 3.87
Cc1nc2ccccc2n1/N=C/c1ccc([N+](=O)[O-])s1 | 3.51
Cc1cccc(NC(=O)c2ccc([N+](=O)[O-])o2)c1C | 14.8
CC(C)(C)c1ccc(C(=O)Nc2ccc(CC(=O)O)cc2)o1 | 0.329
COc1ccc(Oc2cc(NC(=O)c3nn(C)cc3[N+](=O)[O-])cc([N+](=O)[O-])c2)cc1 | 8.94
O=[N+]([O-])/C=C\c1ccc(N2CCOCC2)cc1 | 13.6
CCOc1cc(/C=N/Nc2cccc(C(=O)O)c2)ccc1OC(=O)c1ccccc1 | 1.38
CC(C)(C)c1ccc(-c2noc(CCC(=O)NCC3CCCO3)n2)cc1 (centres undefined) | 0.275
O=C(/C=C/Nc1ccccc1Br)c1ccccn1 | 0.899
CC(C)(C)C(=O)/C(=C/c1ccncc1)n1cncn1 | 6.63
c1ccc2cc3c(NCCN4CCOCC4)ccnc3cc2c1 | 2.91
CC1(C)Cc2c(sc(NC(=O)c3ccc4ncsc4c3)c2C(N)=O)C(C)(C)N1 | 10.1
COc1cc(NC(=O)c2ccc([N+](=O)[O-])o2)ccc1NC(=O)c1cccs1 | 8.46
O=C(CCl)N1CCN(S(=O)(=O)c2ccc3c(c2)CCC3)CC1 | 20.8
COc1ccccc1OCC(=O)N/N=C/C=C/c1ccc([N+](=O)[O-])o1 | 7.39
CCN1CCN(C2=C(NS(=O)(=O)c3ccc(Br)cc3)C(=O)c3ccccc3C2=O)CC1 | 5.71

Compound | AC50 [µM]
O=C(c1ccccc1)c1cc(Cl)ccc1N1C(=O)C=CC1=O | 11.9
CCOC(=O)c1[nH]cnc1N=Nc1c(O)ccc2ccccc12 | 3.76
C(#Cc1ccccc1)C[N+]1(CC#Cc2cccc3ccccc23)CCCC1 | 6.21
CC(=O)N(\C=C/C=C/C=C1\Sc2ccccc2C1=O)c1ccccc1 | 8
Cc1ccc(-c2cc(-c3ccc(C)cc3)[n+](C)o2)cc1 | 8.24
O=C(COC(=O)c1ccc(F)c([N+](=O)[O-])c1)NC(=O)NCc1ccccc1 | 13.6
O=[N+]([O-])c1cccc2c(N3CCCC3)ccnc12 | 2.47
Cc1cccc(NC(=O)CNC(=O)Cn2ncc(Cl)c(Cl)c2=O)c1C | 13.4
CCn1c(/C=C/N(C)c2ccccc2)[n+](CC)c2ccc(Cl)cc21 | 6.86
CCc1ccc(N2C(=O)NC(=O)/C(=C\C=C\c3ccco3)C2=O)cc1 | 7.53
Cc1ccccc1OCC(=O)N/N=C/c1ccc([N+](=O)[O-])o1 | 8.22
O=C(CCl)N1c2ccccc2SCC1c1ccccc1 (centres undefined) | 4.2
CC1=C(CC(=O)c2ccccc2)C(=O)c2ccccc2C1=O | 7.15
O=C(CCl)N(c1ccccc1)C1CCS(=O)(=O)C1 (centres undefined) | 9.35
O=C(Nc1ccc(Cl)cc1)Nc1cccc(C(=O)O)c1 | 3.79
O=C1NC(=O)N(Cc2ccccc2)C(=O)/C1=C\C=C\c1ccco1 | 6.29
C=CCn1c(C)cc(C2=NNC(=NCC)SC2)c1C | 0.056
CC(C)(C)c1ccc(C(=O)Nc2sc3c(c2C(=O)O)CCC3)cc1 | 2.09
CC(=O)Nc1sc(C)c(C)c1C(=O)OCC(=O)N(CC(C)C)c1c(N)n(Cc2ccccc2)c(=O)[nH]c1=O | 5.29
Cc1[nH]nc2nc(SCC(=O)NCCC3=CCCCC3)n(-c3ccc(Br)cc3)c(=N)c12 | 2.46
Cc1ccc(NC(=O)/C=C/c2ccc([N+](=O)[O-])s2)c(C)c1 | 4.64

Compound | AC50 [µM]
Nc1ccc(-c2ncc(-c3ccccc3)o2)cc1 | 0.171
Nc1ccc(-c2cc3ccccc3c(=O)o2)cc1 | 0.293
COc1ccccc1NC(=O)c1cnc(SCC(=O)NCC2CCCO2)n(C)c1=O (centres undefined) | 8.88
O=[N+]([O-])c1ccc(/C=N/n2cnc3ccccc32)s1 | 6.25
CCN1c2ccccc2NC2N=C(OC)C(c3ccccc3)C21 (centres undefined) | 7.52
CCOc1ccc(-c2cc(C)[n+](CCO)c(-c3ccc(OCC)cc3)c2)cc1 | 11.1
C/C(=N\NC(=O)C(c1ccccc1)c1ccccc1)c1ccccn1 | 5.96
CC(C)(C)c1ccc(OCCCNCc2ccccc2)cc1 | 18.4
COc1ccc(C(=O)C(CN2CCCC2)c2ccccc2)cc1 (centres undefined) | 9.13
O=C(/C=C/c1ccc(Cl)c([N+](=O)[O-])c1)c1ccc(O)cc1 | 17.4
CCOC(=O)CSC1=NC(=O)/C(=C/c2ccc(OC)cc2)S1 | 3.98
CC(C)(c1ccccc1)c1ccc(OCC(O)CNC2CCN(Cc3ccccc3)CC2)cc1 (centres undefined) | 7.94
O=C(O)/C=C/C(=O)c1ccc2c(c1)CCc1ccccc1-2 | 15
O=[N+]([O-])c1cc(CN2CCN(c3ccccc3)CC2)c(O)c2ncccc12 | 8.3
CCSCCc1nnc(NC(=O)Nc2cccc(C(F)(F)F)c2)s1 | 8.99
[2H]C(CCOS(N)(=O)=O)c1ccc(C(C)(C)C)cc1 (centres undefined) | 0.487
CC1CN(C(=O)CCC(=O)NCCCN2CCC(Cc3ccccc3)CC2)c2cc(Cl)ccc2O1 (centres undefined) | 16.2
Cc1c(C#N)c(NC(=O)CCl)n(Cc2ccccc2)c1C | 11.2
NC(=O)c1cc([N+](=O)[O-])ccc1NCc1ccc(N)cc1 | 1.41
CC(C)C(=O)N1CCN(c2ccc(NC(=O)c3ccc([N+](=O)[O-])o3)cc2Cl)CC1 | 7.05
O=c1nc(N/N=C/c2ccccn2)cn[nH]1 | 4.65

Compound | AC50 [µM]
Cc1ccc(-c2cn3cc(C)ccc3n2)cc1 | 2.03
Cc1nc(NC(=O)/C=C/c2ccccc2)n[nH]1 | 17.8
O=[N+]([O-])/C=C\c1ccc(N2CCCC2)c(F)c1 | 13.4
O=C(N/N=C\c1ccc([N+](=O)[O-])s1)c1cncc(Br)c1 | 4.34
CC(=O)SC(C[N+](=O)[O-])c1cn(C(C)=O)c2ccccc12 (centres undefined) | 3.54
Cc1ccc(-n2[nH]c(=O)c(-c3ccccn3)c2C)cc1 | 3.23
Cc1cc(C)nc(S/C=C/C(=O)c2ccccc2F)n1 | 5.38
CN(C)c1ccc(NC(=S)c2ccccn2)cc1 | 2.84
CCN(CC)CCNC(=O)c1ccc(NC(=O)c2cccc(S(=O)(=O)N3c4ccccc4CC3C)c2)cc1 (centres undefined) | 10.5
CCCCNC(=O)Nc1ccc(C2SCCS2)cc1 | 35.3
CCN(Cc1ccc(OC)c(F)c1)C(=O)CCl | 3.36
COc1ccc(C(=O)/C=C/C(=O)N(CC(=O)NC2CCCCC2)Cc2ccccc2OC)c(O)c1 | 4.04
Cc1cc(C)cc(N2C(=O)NC(=O)/C(=C\C=C\c3ccco3)C2=O)c1 | 4.88
CC(C)(C)c1ccc(/C=N/Nc2ccc(C(=O)O)cc2)cc1 | 6.03
Oc1c(CN2CCCCC2)cc(COCc2ccccc2)c2cccnc12 | 2.17
CCC(=O)N1CCN(c2ccc(Cl)cc2NC(=O)c2ccc([N+](=O)[O-])o2)CC1 | 12.4
COc1cc(/C=C/C(=O)N2CCC=CC2=O)cc(OC)c1OC | 7.4
Cn1nnnc1Sc1ncnc2scc(-c3ccc(C#N)cc3)c12 | 4.98
CC(C)n1c(O)c(C2c3cc(Cl)ccc3Oc3[nH]c(=O)n(C(C)C)c(=O)c32)c(=O)[nH]c1=O (centres undefined) | 5.39
Cc1onc(-c2ccccc2)c1C(=O)N/N=C/c1ccc([N+](=O)[O-])s1 | 5.35
CC(=O)Cn1ncc(Br)c(Br)c1=O | 15.8
